# Laboratory results reported in patent US20250281497A1, “FUSED AMINO PYRIMIDINE COMPOUNDS FOR TREATMENT OF SEIZURE DISORDERS” (Ovid Therapeutics Inc., priority 2024, published 2025).
# Key:
# [1] = test system: KA induced SE; test: KA induced ongoing SE, EEG recording, treatment 2h after KA; assay type: in vivo, mice; conditions: treatment 2h after KA
# Experimental: EEG recordings and analysis. WT C57Bl/6J adult male mice (12 weeks) were anesthetized with isofluorane and implanted with EEG/EMG electrodes and allowed to recover for 7 days prior to experimentation. […] 2h following KA administration mice were injected with a saturating concentration of diazepam (DZ) 10 mg/kg (IP) and recordings were extended for a further 60 min. […] LabChart 8 software was used for data analysis. Epileptiform activity was identified by changes in the amplitude of electrographic activity characterized by consistent changes in the power of the Fast Fourier transform (FFT) of the EEG and abnormal activity characterized by periods of rhythmic spiking lasting longer than 30s (Moore et al., 2017, supra; Silayeva et al., 2015, supra; Sivakumaran et al., J. Neurosci. 35, 8291-8296 (2015)).
# To evaluate the potential of KCC2 activators to terminate ongoing SE, the KA model described above was employed. Mice were injected with KA (20 mg/Kg; IP). […] Spectral data were then subjected to FFT and the total EEG power between 1-100 Hz of the 2h following KA treatment (pre-drug) and 30 min following their injection (post-drug) were compared (FIG. 6B). In mice treated with DZ alone variable effects were observed, from large increases to modest reductions in EEG power, but these effects were not significant (FIG. 6C; pre=1.1±0.2×10^−6, post=4.4±7.4×10^−7 μV^2, p=0.214, n=13-14 mice). […] The latency of the treatments to modify EEG power was examined by measuring the time taken for this parameter to be reduced to 50% (FIG. 6E). […] Finally in mice treated with DZ alone 62% were insensitive to the effects of this agent on EEG power.
# [2] = test system: PTZ induced motor seizures; test: Pentylenetetrazol (PTZ) induced convulsions; assay type: in vivo, mice; conditions: 12.5 mg/kg IV pretreatment
# [3] = target: T1, KCC2-S940A (Homo sapiens, UniProt Q9H2X9, S963A); test: Tl+ flux assay, KCC2-S940A construct; assay type: cell-based; conditions: HEK-293
# T1 construct: expressed in transfected cells; host or cells: HEK-293
# T1 sequence (Q9H2X9 1-1116 isoform Q9H2X9-2 S940A): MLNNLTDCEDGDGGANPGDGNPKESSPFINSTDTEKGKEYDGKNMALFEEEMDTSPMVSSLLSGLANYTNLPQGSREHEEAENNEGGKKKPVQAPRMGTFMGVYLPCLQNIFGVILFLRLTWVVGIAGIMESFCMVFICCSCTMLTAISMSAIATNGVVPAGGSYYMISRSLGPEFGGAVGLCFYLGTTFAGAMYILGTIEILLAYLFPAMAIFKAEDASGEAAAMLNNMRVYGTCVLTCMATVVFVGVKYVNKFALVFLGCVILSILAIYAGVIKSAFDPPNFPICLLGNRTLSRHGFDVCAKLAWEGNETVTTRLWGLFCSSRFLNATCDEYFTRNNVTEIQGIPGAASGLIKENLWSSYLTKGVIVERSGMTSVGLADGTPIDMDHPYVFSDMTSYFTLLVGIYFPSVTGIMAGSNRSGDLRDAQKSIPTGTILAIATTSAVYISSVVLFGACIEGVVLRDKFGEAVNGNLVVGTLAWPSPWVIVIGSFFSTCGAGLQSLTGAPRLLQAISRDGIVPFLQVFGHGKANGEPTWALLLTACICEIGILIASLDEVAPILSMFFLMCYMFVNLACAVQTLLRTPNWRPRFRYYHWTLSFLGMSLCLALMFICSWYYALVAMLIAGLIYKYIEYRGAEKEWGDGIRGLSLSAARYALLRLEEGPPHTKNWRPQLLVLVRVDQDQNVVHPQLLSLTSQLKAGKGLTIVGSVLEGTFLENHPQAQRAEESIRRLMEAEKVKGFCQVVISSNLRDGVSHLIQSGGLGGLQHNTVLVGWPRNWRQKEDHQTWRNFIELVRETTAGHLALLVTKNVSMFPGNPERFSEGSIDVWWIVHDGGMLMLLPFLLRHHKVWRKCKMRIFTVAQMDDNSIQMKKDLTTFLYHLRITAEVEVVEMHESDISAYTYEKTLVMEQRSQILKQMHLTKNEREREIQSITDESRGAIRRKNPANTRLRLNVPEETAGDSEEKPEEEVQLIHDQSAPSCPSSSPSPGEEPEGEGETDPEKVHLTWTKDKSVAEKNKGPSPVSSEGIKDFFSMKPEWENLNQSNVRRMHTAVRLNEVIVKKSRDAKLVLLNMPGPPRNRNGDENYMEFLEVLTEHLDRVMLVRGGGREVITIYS
# Experimental: FLIPR TI Flux assay. HEK-293 cells were washed with HBSS, and then incubated with loading buffer containing TI sensitive fluorescent dye (https://www.moleculardevices.com), 20 μM bumetanide 20 μM ouabain and 2.5 mM probenecid for 1 h at room temperature (RT) under control conditions or with drugs in the dark using a FlexStation 3 microplate reader (Molecular Devices) and imaged […] for 30 min. Stimulus buffer was added containing 5 mM K^+/0.5 mM Tl^+ and cells were imaged every 1.5 over a 190 second time course The initial rate Tl^+ uptake (Relative Fluorescence Units (RFU) per second) was determined following addition of the stimulus buffer as outlined previously (Conway et at, 2017, supra) (Lee et at, 2022, supra).
# Several studies have shown that the activity and plasma membrane accumulation of KCC2 is potentiated via phosphorylation of S940, a process mediated by the activity of protein kinase C and protein phosphatase 1 (Lee et al., 2011, supra; Lee et al., J Biol Chem 282, 29777-29784 (2007); Moore et al., Proc. Natl. Acad. Sci. U.S.A. 115, 10166-10171 (2018); Moore et al., Trends Neurosci. 40, 555-571 (2017); Silayeva et al., Proc. Natl. Acad. Sci. U.S.A. 112, 3523-3528 (2015)). […] Compared to KCC2, effects on KCC3, KCC4, and NKCC1 were only seen at concentrations more than 35-fold that of KCC2 (>100 μM) (FIG. 1G).
smiles,measurement,setting,value
"C[C@@H]1CN(c2nc3c(c(Nc4ccc(C5CCCCC5)cc4)n2)COC3)CCO1 [Compound A, (R)—N-(4-cyclohexylphenyl)-2-(2-methylmorpholino)-5,7-dihydrofuro[3,4-d]pyrimidin-4-amine]",mice insensitive to DZ effects on EEG power,[1],abolished
same,dose of PTZ required to induce forelimb clonus,[2]; Control=51.5±3.1,56.3 ± 3.3 mg/kg
same,dose of PTZ required to induce hindlimb clonus,[2]; Control=84.5±5.1,137.4 ± 7.5 mg/kg
same,activity of KCC2-S940A construct,[3],increased the activity
